Reference: patent publication US7495024B2, “Phenylalkyl N-hydroxyureas for combating atherosclerotic plaque” (VIA Pharmaceuticals, Inc., priority 2006, dated 2009)

Test system: ApoE-deficient mice
Test: Histopathological and quantitative assessment of plaque/lesion area in aortic root and aorta (Example 2, FIG. 3)
Type: in vivo
Settings: 28-week old ApoE-deficient mice, 28 days
Method: Four week old female ApoE-deficient knockout mice were fed a high-fat diet set forth in Example 1 for a period of 24 weeks to allow atherosclerotic plaque to build-up. The 28 week old ApoE-deficient mice were then randomized to receive vehicle (0.9% sterile saline administered at 5 mL/kg or compound X administered at two different doses, 10 mg/kg and 50 mg/kg, each in a volume of 5 mL/kg (from concentrations of […] respectively) daily for 28 consecutive days. Saline vehicle and compound X were all prepared fresh daily and administered orally with a 22G gavage syringe. Doses were adjusted based on most recently obtained body weight. The following two treatment groups were tested and compared: 1) the first treatment group consisted of 20 female mice treated only with saline and 20 female mice treated with 10 mg/kg of compound X and 2) the second treatment group consisted of 20 female mice treated with vehicle and 20 female mice treated with 50 mg/kg of compound X.
The entire treatment was carried out by administering the vehicle or the dosage to the mice once a day for 28 days. […] At terminal sacrifice, aortas were harvested from 16 mice in each of the treatment groups and grossly evaluated, selected tissue from the remaining 4 mice per group were evaluated grossly and fixed and processed for histopathological analysis and quantitative determination of plaque burden.
For quantitative assessment of the atherosclerotic process, in FIG. 2 and FIG. 3, the aortic tree of mice was prepared and described by Tabibiazar, Wagner, et al. Physiol Genomics 22(2): 213-226 (2005). The amount of plaque/lesion area in the aortic root, as well as the entire aorta, was measured. Percent lesion areas were calculated as a total lesion area divided by the total surface area. […]
For the quantitative assessment of the atherosclerotic process in FIG. 3, the amount of plaque/lesion area in the aortic root as well as the entire aorta was measured. Percent lesion area was calculated at total lesion area divided by total surface area.

Which “atherosclerotic plaque formation in the aortic root (histopathological evaluation)” value (10 mg/kg (p<0.07) and 50 mg/kg (p<0.001) oral, vs vehicle) does the source give for CC(C#Cc1ccc(Cc2ccc(F)cc2)s1)N(O)C(N)=O (stereo not drawn) [compound X, N-[3-[5-[(4-fluorophenyl)methyl]-2-thienyl]-1-methyl-2-propynyl]-N-hydroxyurea] here?
Its value is “dose dependent reduction of atherosclerotic plaque formation”.

And the “reduction in mean lesion area compared to vehicle” value (50 mg/kg oral, statistically significant)?
Its value is “approximately 45%”.

What about the “percent plaque lesion area in the aortas” value (10 and 50 mg/kg/day oral, vs vehicle, dose dependent) of the same compound?
Its value is “marked reduction of percent plaque lesion area”.
